Data: patent publication US8389468B2, “Approach to the treatment of compartment syndrome” (Lantmannen AS-Faktor AB, priority 2006, dated 2013)
Entries after “also recorded” stand apart in the source; their conditions may differ.

What was measured:
Assay type in all cases: in vivo, rat
[1] = system: HSV-1; assay: Immunohistochemical visualization of HSV-1 proteins in brain, rats; conditions: 1 or 10 pg intranasally twice daily, day 6
Method: An alternative explanation to the improved survival of HSV-1 infected animals could be that the treatment with AF-16 prevented the virus from multiplying and/or spreading in the brain. […] Adult rats were infected by having a solution of the herpes simplex virus type 1 (HSV-1; strain 2762, batch 041028; 1.7×10^7 PFU/mL) instilled in their right nostril. Half of the animals received 10 min later 25 pi_ (1 or 10 pg) of AF-16 in their right nostril, and had thereafter the same dose of AF-16 instilled every morning at 8 AM and every night at 6 PM until the experiment was terminated on day 6. The other groups of the HSV-1 infected rats received at the same time intervals 25 pL of the vehicle, PBS. The animals were closely watched for signs of general sickness and of behavioral and motor dysfunction. The animals were sacrificed by an overdose of anesthetics on day 6, the skull opened and the brain removed. The brains, including the olfactory bulbs, were fixed by immersion in buffered formalin for at least a day. The brains were the dissected and divided in several specimens, which were processed for light microscopic investigation after paraffin embedding and sectioning. The sections were processed for routine staining and for immunohistochemical visualization of HSV-1 proteins (FIG. 4). […] Note the distinct staining of the nerve cells (black in FIG. 4a-c).

[2] = system: pericardium; assay: Traumatized pericardium, fluid accumulation; conditions: treated for a week after rubbing of pericardium
Source text: Adult rats had experimentally a CC condition induced affecting the pericardium and assessed with regard to effects of treatment with the peptide AF-16. The pericardial cavity is delimiting the heart, forming a sac filled with a minimal volume of fluid, enabling accommodation of the sliding movements resulting from the sudden and forceful contractions of the heart. The pericardial cavity is towards its periphery enclosed by a parietal membrane rich in collagen. On anaesthetized rats the pericardium was opened surgically, through a small “window” in the diaphragm and mediastinum. The inside of the pericardium was traumatized by rubbing it surgically through the incision. These animals were divided in two groups, one treated with AF-16 while the other had just the vehicle, PBS. […] In contrast, those animals that after the rubbing had been treated with the vehicle had their pericardium filled with fluid under pressure, and had further numerous fibrin strands and inflammatory cells. Additionally, the parietal pericardial envelop was swollen, inflamed and infiltrated by numerous enlarged, in parts newly formed blood vessels.

[3] = system: HSV-1 infected rats; assay: Intracranial pressure (ICP) and neurological symptoms in HSV-1 infected rats, fibre optic pressure sensor
Method: Adult rats were infected by having a solution of the Herpes Simplex virus type 1 (HSV-1; strain 2762, batch 041028; 1.7×10^7 PFU/mL; 25 pL) instilled in their right nostril. One group of animals (n=6) received 10 min after the infection 25 pL (10 pg) of AF-16 in their right nostril, and had thereafter the same dose of AF-16 instilled twice daily, every morning at 8 AM and every night at 6 PM, until the experiment was terminated on day 6. Additional HSV-1 infected rats (n=6) received in the nose at the same time intervals 25 pL of the vehicle, phosphate buffered saline (PBS). On day 6, the animals were anaesthetized, a surgical incision made through the skin on the head, and the skull bone freed from periostium and connective tissue. A hole with a diameter of about 1 mm was drilled through the right parietal bone and a miniature pressure sensor inserted 3-5 mm into the brain or into the lateral ventricle. A fibre optic pressure measure system (Samba System 3200 & Samba Preclin 420 sensor; Samba Sensors AB, V Frolunda, Sweden) with a very small diameter, ve. 0.4 mm, was used. […] HSV-1 infected rats treated with just the vehicle were measured to have as high pressures as up to 30-45 mm Hg (FIG. 2a), considerably affect the animals as reflected by symptoms of neurological dysfunction of increasing severity. In contrast, HSV-1 infected rats treated from the time of infection with AF-16 twice daily had almost normal ICP, 8-14 mm Hg (FIG. 2 b).
Additional HSV-1 infected animals with distinctly overt symptoms were as well treated with 10 or 25 pg AF-16 intranasally, starting on day 5, 6 or 7, i.e. after having had the vehicle during the previous days. […] Thus, non of the acutely AF-16 treated rats had any persistent signs of deleterious ICP and thus no CS developed. […] That is seen in the mentioned figure (FIG. 5 a) as there is no red staining of the right half on the figure. However, treatment with 10 or 25 pg AF-16 intranasally turned the picture in HSV-1 infected rats as in the normal, non-infected ones. […] Thereby the outflow of CSF was restored and the ICP turned normal.

[4] = overt symptoms, 10 or 25 pg intranasally starting on day 5, 6 or 7

For VCHSKTRSNPENNVGL [AF-16], the “prevalence and distribution of HSV-1 proteins in the brain vs vehicle” value [1] was “no obvious difference with regard to the prevalence and distribution of HSV-1 proteins; also recorded: no difference in frequency or distribution of HSV-1 positive brain cells”, the “fluid in pericardial cavity” value [2] was “just minor accumulation of fluid in their pericardial cavity, at low pressure” and the “intracranial pressure (ICP)” value ([3]; HSV-1 infected rats, 10 pg AF-16 intranasally twice daily from time of infection, day 6, normal rats 4-8, vehicle 30-45) was 8-14 mm Hg. The “development of neurological dysfunctions” value ([3]; intranasal treatment twice daily from infection) was “prevented the development of neurological dysfunctions”, the “onset and duration of pressure reducing effect” value [3, 4] was “detectable within an hour and lasted for several hours” and the “symptoms of neurological dysfunctions after acute treatment” value [3, 4] was “turned reduced within half an hour and were not demonstrable any longer after one hour”.
